In data set [1] the test system is H9c2. The experiment in a line: Effect on metabolic activity in […] H9C2 cells up to 10 uM incubated for 1 hr followed by paraquat addition measured after 24 hrs by CellTiter 96 Aqueous non-radioactive cell proliferation assay. Format: functional, cell-based.
Data set [2] addresses Kir6.2/SUR1 (Rattus norvegicus) (UniProt P70673+Q09429). The data set can be described thus: Activation of Kir6.2/SUR1 in rat pancreatic islets assessed as residual glucose-induced insulin release at 10 uM relative to control.
Data set [3] has as its system H9c2. The data set can be described thus: Effect on ATP production in […] H9C2 cells up to 10 uM after 24 hrs by CellTiter-Glo luminescent test. The data set is classed as functional, cell-based.
Data set [4] relates to H9c2. The data set can be described thus: Effect on routine respiration in […] H9C2 cells at 10 uM by high resolution oxygraphic analysis. Format: functional, cell-based.
In data set [5] the test system is H9c2. The data set can be described thus: Effect on maximal respiratory capacity in […] H9C2 cells at 10 uM by high resolution oxygraphic analysis. The data set is classed as functional, cell-based.
Data set [6] can be described thus: Drug uptake in mitochondria of […] H9C2 cells at 1 x 10^-4 M after 2 hrs by LC-MS analysis. The data set is classed as ADME. As to conditions: h9c2, 2 h, 100 µM.
The nature of data set [7]: Drug uptake in cytosol of […] H9C2 cells at 1 x 10^-4 M after 2 hrs by LC-MS analysis. Format: ADME, cell-based. The note with it: 100 µM.
Data set [8] concerns H9c2. The data set can be described thus: Effect on oligomycin-inhibited leak respiration in […] H9C2 cells at 10 uM by high resolution oxygraphic analysis. Format: functional, cell-based.

SMILES strings stand for the structures. Active and inactive are the calls of the source. The calls are words filed in the database; no cut-off is given here.

Regarding `C[C@H](COC(=O)CC[P+](c1ccccc1)(c1ccccc1)c1ccccc1)NC1=NS(=O)(=O)c2cc(Cl)ccc2N1`, the outcome in data set [1], in data set [3], in data set [4] and in data set [5] was inactive. Further, the Activity in data set [2] came to 56%.

On to `C[C@H](COC(=O)CCC[P+](c1ccccc1)(c1ccccc1)c1ccccc1)NC1=NS(=O)(=O)c2cc(Cl)ccc2N1`, for which the result in data set [1], in data set [3], in data set [4] and in data set [5] was inactive. In addition, the Activity in data set [2] was found to be 63.7%.

As for `C[C@H](COC(=O)C[P+](c1ccccc1)(c1ccccc1)c1ccccc1)NC1=NS(=O)(=O)c2cc(Cl)ccc2N1.[Cl-]`, the result in data set [1], in data set [3], in data set [4] and in data set [5] was inactive. Moreover, the Activity in data set [2] was determined as 27%. Moreover, the Drug uptake result in data set [6] and in data set [7] was “Active” in each case. In addition, the outcome in data set [8] was Active.

As for `CC1=Nc2ccc(Cl)cc2S(=O)(=O)N1`, the Activity in data set [2] is 73.9%.

The values are drawn from ChEMBL document CHEMBL2440097, “Triphenylphosphonium salts of 1,2,4-benzothiadiazine 1,1-dioxides related to diazoxide targeting mitochondrial ATP-sensitive potassium channels” (Bioorg Med Chem Lett, 2013).
